From paper PMC6627609, “Targeting Quorum Sensing: High-Throughput Screening to Identify Novel LsrK Inhibitors” (International Journal of Molecular Sciences, 2019)
Structures can show the parent of a compound that is named as a salt.

Target: LsrK (Salmonella typhimurium, UniProt Q8ZKQ6)
Experiment: biochemical
Format: biochemical, S. typhimurium
Conditions: for Inhibition (%): 50 µM

Sequence of LsrK (Q8ZKQ6 whole entry): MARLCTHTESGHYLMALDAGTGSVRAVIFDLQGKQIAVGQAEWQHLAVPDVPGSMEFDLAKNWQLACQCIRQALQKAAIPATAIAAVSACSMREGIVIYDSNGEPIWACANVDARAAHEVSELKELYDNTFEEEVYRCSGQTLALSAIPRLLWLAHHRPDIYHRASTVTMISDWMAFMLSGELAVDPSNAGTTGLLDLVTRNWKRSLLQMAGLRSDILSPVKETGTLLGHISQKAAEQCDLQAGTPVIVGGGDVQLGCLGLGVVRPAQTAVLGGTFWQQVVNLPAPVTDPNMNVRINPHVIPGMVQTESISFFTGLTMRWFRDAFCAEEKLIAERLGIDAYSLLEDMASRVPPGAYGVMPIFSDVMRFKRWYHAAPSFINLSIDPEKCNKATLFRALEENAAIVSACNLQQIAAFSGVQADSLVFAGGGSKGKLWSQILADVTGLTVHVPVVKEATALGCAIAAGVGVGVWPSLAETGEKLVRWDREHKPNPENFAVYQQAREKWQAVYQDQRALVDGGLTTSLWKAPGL

Structure (SMILES)	inhibition at 50 µM	other results
O=C(O)CCc1nc(-c2ccccc2)c(-c2ccccc2)o1 [OXAPROZIN]	13%	
CN(C(=O)CN(CCO)CC(=O)N(C)C(C)(C)Cc1ccccc1)C(C)(C)Cc1ccccc1 [OXETHAZAINE]	0%	
COC(=O)Nc1nc2ccc([S+]([O-])c3ccccc3)cc2[nH]1 (stereo not drawn) [OXFENDAZOLE]	27%	
CCCOc1ccc2nc(NC(=O)OC)[nH]c2c1 [OXIBENDAZOLE]	2%	
NCCc1cc(O)c(O)cc1O [OXIDOPAMINE HYDROCHLORIDE]	117%	
CCn1cc(C(=O)O)c(=O)c2cc3c(cc21)OCO3 [OXOLINIC ACID]	1%	
COC[C@]12CN(C=O)[C@@H]3[C@@H]4[C@H](OC)[C@H]1[C@@]3([C@@H](OC)C[C@H]2O)[C@@H]1C[C@@]2(O)[C@H](OC(=O)c3ccccc3)[C@@H]1[C@]4(OC(C)=O)[C@@H](O)[C@@H]2OC [OXONITINE]		Inhibition (%): 0
CCCCC1C(=O)N(c2ccccc2)N(c2ccc(O)cc2)C1=O (stereo not drawn) [OXYPHENBUTAZONE]	93%	
CC[N+](C)(CC)CCOC(=O)C(O)(c1ccccc1)C1CCCCC1 (stereo not drawn) [OXYPHENONIUM BROMIDE]	4%	
CN(C)[C@@H]1C(O)=C(C(N)=O)C(=O)[C@@]2(O)C(O)=C3C(=O)c4c(O)cccc4[C@@](C)(O)[C@H]3[C@H](O)[C@@H]12 [OXYTETRACYCLINE]	94%	
COc1cc2c(cc1-c1cc3cc4ccoc4cc3oc1=O)OCO2 [PACHYRRHIZIN]		Inhibition (%): 1
CC(=O)O[C@H]1C[C@@H]2CC[C@@H]3[C@H](CC[C@@]4(C)[C@H]3C[C@H]([N+]3(C)CCCCC3)[C@@H]4OC(C)=O)[C@@]2(C)C[C@@H]1[N+]1(C)CCCCC1 [PANCURONIUM BROMIDE]	0%	
CC(C)(CO)[C@@H](O)C(=O)NCCC(=O)NCCSSCCNC(=O)CCNC(=O)[C@H](O)C(C)(C)CO [PANTETHINE]	0%	
COc1ccnc(C[S+]([O-])c2nc3ccc(OC(F)F)cc3[nH]2)c1OC (stereo not drawn) [PANTOPRAZOLE]	3%	
COc1ccc(Cc2nccc3cc(OC)c(OC)cc23)cc1OC [PAPAVERINE HYDROCHLORIDE]	1%	
Oc1ccc(Cl)cc1 [PARACHLOROPHENOL]	1%	
N=C1C=CC(=C(c2ccc(N)cc2)c2ccc(N)cc2)C=C1 [PARA[…]]	138%	
NC[C@@H]1O[C@H](O[C@H]2[C@@H](O)[C@H](O[C@@H]3[C@@H](O)[C@H](N)C[C@H](N)[C@H]3O[C@H]3O[C@H](CO)[C@@H](O)[C@H](O)[C@H]3N)O[C@@H]2CO)[C@H](N)[C@@H](O)[C@@H]1O [PAROMOMYCIN SULFATE]	3%	
Fc1ccc([C@@H]2CCNC[C@H]2COc2ccc3c(c2)OCO3)cc1 [PAROXETINE HYDROCHLORIDE]	1%	
C=C1C(=O)O[C@H]2[C@H]1CC/C(C)=C/CC[C@@]1(C)O[C@@H]21 [PARTHENOLIDE]	3%	
O=C1C=C2C(=CCOC2O)O1 (stereo not drawn) [PATULIN]	99%	
CCn1cc(C(=O)O)c(=O)c2cc(F)c(N3CCN(C)CC3)cc21.CS(=O)(=O)O [PEFLOXACINE MESYLATE]		Inhibition (%): 2
CN1C(C)(C)CCCC1(C)C [PEMPIDINE TARTRATE]	2%	
CC1(C)S[C@@H]2[C@H](NC(=O)Cc3ccccc3)C(=O)N2[C@H]1C(=O)O [PENICILLIN G POTASSIUM]	4%	
C1CCc2nnnn2CC1 [PENTYLENETETRAZOL]	0%	
C1CCC(C(CC2CCCCN2)C2CCCCC2)CC1 (stereo not drawn) [PERHEXILINE MALEATE]	1%	

Structure (SMILES)	inhibition at 50 µM	other results
N#Cc1ccc2c(c1)N(CCCN1CCC(O)CC1)c1ccccc1S2 [PERICIAZINE]	4%	
CCC[C@H](N[C@@H](C)C(=O)N1[C@H](C(=O)O)C[C@@H]2CCCC[C@@H]21)C(=O)OCC [PERINDOPRIL ERBUMINE]	15%	
CC(=O)OCC(OC(C)=O)C(OC(C)=O)C(OC(C)=O)C(OC(C)=O)C(COC(C)=O)OC(C)=O (stereo not drawn) [PERSITOL HEPTAACETATE]		Inhibition (%): 3
CO[C@H]1[C@H](O)[C@H](O[C@H]2CC[C@@]3(C=O)[C@H](CC[C@@H]4[C@@H]3CC[C@]3(C)[C@@H](C5=CC(=O)OC5)CC[C@]43O)C2)O[C@@H](C)[C@@H]1O [PERUVOSIDE]	1%	
NCC(=O)c1ccccc1 [PHENACYLAMINE HYDROCHLORIDE]	1%	
[H]/N=C(/N)N/C(=N/[H])NCCc1ccccc1 [PHENFORMIN HYDROCHLORIDE]	0%	
CN(C)CCC(c1ccccc1)c1ccccn1 (stereo not drawn) [PHENIRAMINE MALEATE]	3%	
O=C1OC(c2ccc(O)cc2)(c2ccc(O)cc2)c2ccccc21 [PHENOLPHTHALEIN]	0%	
CC(COc1ccccc1)N(CCCl)Cc1ccccc1 (stereo not drawn) [PHENOXYBENZAMINE HYDROCHLORIDE]	1%	
CC(C)(N)Cc1ccccc1 [PHENTERMINE]	15%	
Cc1ccc(N(CC2=NCCN2)c2cccc(O)c2)cc1 [PHENTOLAMINE HYDROCHLORIDE]	0%	
CCCCC1C(=O)N(c2ccccc2)N(c2ccccc2)C1=O [PHENYLBUTAZONE]	0%	
CC(=O)c1c(O)cc(O)cc1O [PHLORACETOPHENONE]		Inhibition (%): 1
O=C(CCc1ccc(O)cc1)c1c(O)cc(O)cc1O [PHLORETIN]	60%	
O=C(O)c1ccccc1C(=O)Nc1ccc(S(=O)(=O)Nc2nccs2)cc1 [PHTHALYLSULFATHIAZOLE]	1%	
CNC(=O)Oc1ccc2c(c1)[C@]1(C)CCN(C)[C@@H]1N2C [PHYSOSTIGMINE SALICYLATE]	1%	
CC(C)(O)[C@@H]1[C@H]2OC(=O)[C@@H]1[C@]1(O)C[C@H]3O[C@]34C(=O)O[C@H]2[C@]14C [PICROTIN]	1%	
CN1CCC(=C2c3ccccc3Sc3ccccc32)CC1 [PIMETHIXENE MALEATE]	0%	
CCc1ccc(CCOc2ccc(CC3SC(=O)NC3=O)cc2)nc1 (stereo not drawn) [PIOGLITAZONE HYDROCHLORIDE]	0%	
O=C(O)/C=C/C=C/c1ccc2c(c1)OCO2 [PIPERIC ACID]	0%	
O=C(/C=C/C=C/c1ccc2c(c1)OCO2)N1CCCCC1 [PIPERINE]	1%	
O=C(O)c1ccc2c(c1)OCO2 [PIPERONYLIC ACID]	1%	
Cl.c1cnc(N2CCN(Cc3ccc4c(c3)OCO4)CC2)nc1 [PIRIBEDIL HYDROCHLORIDE]		Inhibition (%): 3
CCn1cc(C(=O)O)c(=O)c2cnc(N3CCCC3)nc21 [PIROMIDIC ACID]	19%	
O=C(O)[C@@H](O)[C@](O)(Cc1ccc(O)cc1)C(=O)O [PISCIDIC ACID]	2%	
CC(C)=CCc1c2c(c3occ(-c4ccc(O)c(O)c4)c(=O)c3c1O)C=CC(C)(C)O2 [POMIFERIN]	2%	

Structure (SMILES)	inhibition at 50 µM	other results
C[n+]1ccccc1/C=N/O [PRALIDOXIME CHLORIDE]	1%	
O=C(C1CCCCC1)N1CC(=O)N2CCc3ccccc3C2C1 (stereo not drawn) [PRAZIQUANTEL]	0%	
CC(=O)OCC(=O)[C@@]1(O)CC[C@H]2[C@@H]3CCC4=CC(=O)C=C[C@]4(C)[C@H]3[C@@H](O)C[C@@]21C [PREDNISOLONE ACETATE]	0%	
C[C@]12C=CC(=O)C=C1CC[C@@H]1[C@@H]2[C@@H](O)C[C@@]2(C)[C@H]1CC[C@]2(O)C(=O)COP(=O)([O-])[O-].[Na+].[Na+] [PREDNISOLONE SODIUM PHOSPHATE]		Inhibition (%): 0
CC(=O)[C@H]1CC[C@H]2[C@@H]3CC=C4C[C@@H](OC(=O)CCC(=O)O)CC[C@]4(C)[C@H]3CC[C@]12C [PREGNENOLONE SUCCINATE]	4%	
OC(CCN1CCCCC1)(c1ccccc1)c1ccccc1 [PRIDINOL METHANESULFONATE]	1%	
COc1cc(NC(C)CCCN)c2ncccc2c1 (stereo not drawn) [PRIMAQUINE DIPHOSPHATE]	89%	
COC(=O)[C@]1(C)CC[C@]2(C)CC[C@]3(C)C4=CC=C5C(=CC(=O)C(O)=C5C)[C@]4(C)CC[C@@]3(C)[C@@H]2C1 [PRISTIMERIN]	7%	
OC(CCN1CCCC1)(c1ccccc1)C1CCCCC1 (stereo not drawn) [PROCYCLIDINE HYDROCHLORIDE]	0%	
CN(C)CCCN1c2ccccc2Sc2ccccc21 [PROMAZINE HYDROCHLORIDE]	3%	
CC(C)c1cccc(C(C)C)c1O [PROPOFOL]	7%	
C=CC1=C(C)c2cc3[nH]c(cc4nc(cc5[nH]c(cc1n2)c(C)c5CCC(=O)O)C(CCC(=O)O)=C4C)c(C)c3C=C [PROTOPORPHYRIN IX]	100%	IC50: 9 µM
CNCCCC1c2ccccc2C=Cc2ccccc21.Cl [PROTRYPTYLINE HYDROCHLORIDE]		Inhibition (%): 1
CC1=CCc2c(cc3oc(C)cc(=O)c3c2O)OC1 [PTAEROXYLIN]	1%	
COc1ccc(C[C@H](N)C(=O)N[C@H]2[C@@H](O)[C@H](n3cnc4c(N(C)C)ncnc43)O[C@@H]2CO)cc1 [PUROMYCIN HYDROCHLORIDE]	0%	
O=C1c2ccccc2C(=O)c2c(O)c(O)cc(O)c21 [PURPURIN]	45%	
O=c1c(O)cccc2cc(O)c(O)c(O)c12 [PURPUROGALLIN]	89%	
CN1CCCN=C1/C=C/c1cccs1 [PYRANTEL PAMOATE]	101%	
Cc1ncc(CSSCc2cnc(C)c(O)c2CO)c(CO)c1O [PYRITINOL]	1%	
O=c1cccc2ccc(O)c(O)c2c1O [PYROGALLIN]		Inhibition (%): 101
CC[C@@]1(O)C[C@H](O[C@H]2C[C@H](N(C)C)[C@H](O)[C@H](C)O2)c2c(cc3c(c2O)C(=O)c2c(O)ccc(O)c2C3=O)[C@H]1C(=O)OC [PYRROMYCIN]	1%	
O=c1c(O)c(-c2ccc(O)c(O)c2)oc2cc(O)cc(O)c12 [QUERCETIN]	22%	
C[C@@H]1O[C@@H](Oc2c(-c3ccc(O)c(O)c3)oc3cc(O)cc(O)c3c2=O)[C@H](O)[C@H](O)[C@H]1O [QUERCITRIN]	2%	
CCN(CC)CCCC(C)Nc1c2ccc(Cl)cc2nc2ccc(OC)cc12 (stereo not drawn) [QUINACRINE HYDROCHLORIDE]	3%	
O=C(O)[C@]1(O)C[C@@H](O)[C@@H](O)[C@H](O)C1 [QUINIC ACID]	0%	
